Source: US20050289663A1, “Method of constructing orchid haploid by treating unfertilized orchid flower with auxin and method of growing orchid” (SAPPORO BREWERIES LIMITED, priority 2002, published 2005)

How the values were obtained:
[1] = system: Bletilla. Brigantes “H5-11”; experiment: Auxin treatment of unfertilized orchid flowers: parthenogenetic seed formation, germination and ploidy check (flow cytometry, chromosome count); assay type: in vivo
Procedure: In the first embodiment, Bletilla. Brigantes “H5-11” was used. The supplied testing plants were grown in the conventional method. The blooming was affirmed, pollens were removed and a treatment of dropping of 10 micro liter was performed with the warmed lanolin paste which contains 2% of α-naphthaleneacetic acid at column using the syringe. Since two or more flowers might exist in the same inflorescence, the above-mentioned treatment was performed about for each one repeatedly five or more times. After individuals in which its ovary got fat are ripened completely (6 to 7 months after the treatment), then they were obtained, they were sterilized their surface for 5 minutes with 0.5% of sodium hydrochlorite solution, planted them on a medium in germfree container, and the germination was forced. After planting, when the number of planted seeds and the number of seed with embryo were observed, 11 seeds with embryo were observed out of 7000 of the planted total number of seeds. […] After plants originating in auxin treatment grew in the suitable size for sampling (1 to 2 months after germination), DNA contents of these plants originating in auxin treatment were measured by flow cytometry, then chromosomes were observed simultaneously and the number of chromosomes was investigated. The investigation was done by obtaining new leaf of seedling, plants treated with α-naphthaleneacetic acid (NAA) of the present invention were investigated and also plants originating in self-pollination were investigated as a comparison. FIG. 2 is views showing results of analysis based on flow cytometry. FIG. 3 is views showing observation results of chromosomes under a microscope.

Zygopetalum = conditions: given to stigma of Zygopetalum; cited from earlier work

SMILES: O=C(O)Cc1cccc2ccccc12 [α-naphthaleneacetic acid]
- number of chromosomes of the plant originating in auxin treatment ([1]; 1 to 2 months after germination, microscope, 32 chromosomes for Bletilla Bringantes): 16
- DNA amount by flow cytometry: peak position versus plant originating in self-pollination ([1]; 1 to 2 months after germination, new leaf of seedling): half ploidy level
- buds of plants originating in auxin treatment observed in the seeds with embryo ([1]; 2 weeks after planting of seeds, from the 11 seeds with embryo): 8
- DNA contents by flow cytometry: peak position versus plants originating in self-pollination ([1]; 5 to 6 months after germination): almost same position
- number of seeds with embryo ([1]; out of 7000 of the planted total number of seeds, 10 micro liter lanolin paste containing 2% α-naphthaleneacetic acid dropped at column of unfertilized flower): 11
- induction of parthenogenesis (Zygopetalum): parthenogenesis has been induced
